Results taken from patent US20260305610A1, “TRIAZOLE COMPOUND, AND PREPARATION METHOD THEREFOR, HERBICIDAL COMPOSITION AND USE THEREOF” (QINGDAO KINGAGROOT CHEMICAL COMPOUND CO., LTD., priority 2023, published 2026).

Key:
[1] = tested on: monocotyledonous and dicotyledonous weeds; experiment: Pre-emergence test experiment (weeds); assay type: in vivo; set-up: key: 9: completely dead; 8: growth control rate is greater than or equal to 90% and less than 100%; 7: growth control rate is greater than or equal to 80% and less than 90%; 6: growth control rate is greater than or equal to 70% and less than 80%; growth control rate is greater than or equal to 50% and less than 70%; 4: growth control rate is greater than or equal to 30% and less than 50%; growth control rate is greater than or equal to 20% and less than 30%; growth control rate is greater than or equal to 10% and less than 20%; growth control rate is less than 10%; 0: no effect; settings: 30 g a.i./ha
[2] = tested on: major crops; experiment: Pre-emergence test experiment (crops); assay type: in vivo; set-up: key: 9: completely dead; 8: growth control rate is greater than or equal to 90% and less than 100%; 7: growth control rate is greater than or equal to 80% and less than 90%; 6: growth control rate is greater than or equal to 70% and less than 80%; growth control rate is greater than or equal to 50% and less than 70%; 4: growth control rate is greater than or equal to 30% and less than 50%; growth control rate is greater than or equal to 20% and less than 30%; growth control rate is greater than or equal to 10% and less than 20%; growth control rate is less than 10%; 0: no effect; settings: 30 g a.i./ha

Compound | Pre-emergence activity level (growth control rate) on Amaranthus retroflexus [1] | Pre-emergence activity level (growth control rate) on Veronica [1] | Pre-emergence plant damage level (growth control rate) on Corn [2] | Pre-emergence plant damage level (growth control rate) on Cotton [2] | Pre-emergence plant damage level (growth control rate) on Soybean [2] | Pre-emergence activity level (growth control rate) on Descurainia sophia [1] | Pre-emergence activity level (growth control rate) on Digitaria sanguinalis [1] | Pre-emergence activity level (growth control rate) on Setaria viridis [1] | Pre-emergence activity level (growth control rate) on Solanum nigrum [1]
CCc1ccc(-n2cnc(C(F)(F)F)n2)nc1Oc1cccc(CF)c1 [Compound 85] | 9 | 9 | 0 | 0 | 0 |  |  |  | 
CCc1ccc(-n2cnc(C(F)(F)F)n2)nc1Oc1ccc(F)c(OC(F)F)c1 [Compound 132] | 9 | 9 | 0 | 0 | 0 | 9 | 9 | 9 | 9
CCc1ccc(-n2cnc(C(F)(F)F)n2)nc1Oc1cccc(OC(F)F)c1 [Compound 133] | 9 | 9 | 0 | 0 | 0 | 9 | 9 | 9 | 9
CCc1ccc(-n2cnc(C(F)(F)F)n2)nc1Oc1ccc(F)c(C(F)(F)F)c1 [Compound 135] | 9 | 9 | 0 | 0 | 0 | 9 | 9 | 9 | 9
CCc1ccc(-n2cnc(C(F)(F)F)n2)nc1Oc1ccc(F)c(OC(F)(F)F)c1 [Compound 136] | 9 | 9 | 0 | 0 | 0 | 9 | 9 | 9 | 9
CCc1ccc(-n2cnc(C(F)(F)F)n2)nc1Oc1cccc(C(F)F)c1 [Compound 137] | 9 | 9 | 0 | 0 | 0 | 9 | 8 (growth control rate is greater than or equal to 90% and less than 100%) | 9 | 9
COCc1ccc(-n2cnc(C(F)(F)F)n2)nc1Oc1cccc(Cl)c1 [Compound 139] | 9 | 9 | 0 | 0 | 0 | 9 | 9 | 9 | 9
COCc1ccc(-n2cnc(C(F)(F)C(F)(F)F)n2)nc1Oc1cncc(C(F)(F)F)c1 [Compound 140] |  | 9 | 0 | 0 | 0 | 9 | 8 (growth control rate is greater than or equal to 90% and less than 100%) | 9 | 9
COCc1ccc(-n2cnc(C(F)(F)C(F)(F)F)n2)nc1Oc1cccc(C(F)(F)F)c1 [Compound 141] | 8 (growth control rate is greater than or equal to 90% and less than 100%) | 9 | 0 | 0 | 0 | 9 | 9 | 8 (growth control rate is greater than or equal to 90% and less than 100%) | 9
COCc1ccc(-n2cnc(C(F)(F)F)n2)nc1Oc1cncc(C(F)(F)F)c1 [Compound 142] | 9 |  | 0 | 0 | 0 | 9 | 9 | 9 | 9
COCc1ccc(-n2cnc(C(F)(F)F)n2)nc1Oc1ccc(F)c(C(F)(F)F)c1 [Compound 143] | 9 | 9 | 0 | 0 | 0 | 9 | 8 (growth control rate is greater than or equal to 90% and less than 100%) | 9 | 9
COCc1ccc(-n2cnc(C(F)(F)F)n2)nc1Oc1cccc(C(F)F)c1 [Compound 144] | 9 | 9 | 0 | 0 | 0 | 9 | 8 (growth control rate is greater than or equal to 90% and less than 100%) | 9 | 9
COCc1ccc(-n2cnc(C(F)(F)F)n2)nc1Oc1cccc(OC(F)(F)F)c1 [Compound 145] | 9 | 9 | 0 | 0 | 0 | 9 | 9 | 9 | 9
